A melting point compilation (Tetko et al.)

Row | Structure (SMILES) | melting point
1 | NC(=O)c1cncc(C(=O)O)c1 | 269 to 271 °C
2 | CC1CC(C)CN(c2ccc(C(=O)O)cc2[N+](=O)[O-])C1 (stereo not given) | 167 to 169 °C
3 | Cc1ccc(N(C(=O)CCCl)C2C=CS(=O)(=O)C2)cc1C (stereo not given) | 122 to 124 °C
4 | COc1ccccc1Oc1ccc(C(N)=S)cc1 | 193 to 195 °C
5 | O=C(NC(C(=O)O)c1ccccc1)OCc1ccccc1 (stereo not given) | 130 to 132 °C
6 | CS(=O)(=O)NCCc1ccc(C(=O)CCl)s1 | 110 to 112 °C
7 | COC(=O)COc1cc(N)c(Cl)cc1C | 88 to 90 °C
8 | COc1ccc(CCN2C(=O)NC(=O)C2=O)cc1 | 179 to 181 °C
9 | O=S1(=O)CCNC(c2ccccc2)C1 (stereo not given) | 124 to 126 °C
10 | COCCn1nc(C(=O)O)ccc1=O | 156 to 158 °C
11 | O=C(O)C1CC(c2ccc(Cl)cc2)C1 (stereo not given) | 119 to 121 °C
12 | O=C1CCCc2cc[nH]c21 | 94 to 96 °C
13 | COC(=O)c1cccc(-c2nc(CCl)cs2)c1 | 129 to 131 °C
14 | CSc1ccc(N)cc1Cl | 74 to 76 °C
15 | CC(=O)c1cccc(S(=O)(=O)NCCC(=O)O)c1 | 106 to 110 °C
16 | NS(=O)(=O)c1cccc(NC(=O)Oc2ccccc2)c1 | 193 to 195 °C
17 | N#Cc1ccccc1S(=O)(=O)N1CCC(C(=O)O)CC1 | 150 to 152 °C
18 | O=C(c1ccc(F)cc1)c1cnccn1 | 55 to 57 °C
19 | Cc1ccc2nc(S)n(C)c(=O)c2c1 | 275 to 277 °C
20 | Cc1nn(-c2ccc(Cl)c(Cl)c2)c(C)c1CC(=O)O | 140 to 142 °C
21 | CN(CC(=O)O)c1nc2ccccc2s1 | 165 to 167 °C
22 | O=C1CSC(=S)N1c1cccnc1 | 159 to 161 °C
23 | CC(C)CC(N)C(O)c1cccs1 (stereo not given) | 63 to 65 °C
24 | CCOC(=O)c1ncon1 | 31 to 33 °C
25 | CN(C)C(=O)c1ccnc(N)c1 | 196 to 198 °C

Row | Structure (SMILES) | melting point
26 | COc1ccc2c(-c3ccccc3)cc(NN)nc2c1 | 119 to 121 °C
27 | NC(=O)c1c(N)sc2c1CCN(Cc1ccccc1)C2 | 76 to 78 °C
28 | Clc1ccc(SC2CCNCC2)cc1 | 41 to 43 °C
29 | Cc1c(Cl)ccc2ccc(N)nc12 | 134 to 136 °C
30 | CCS(=O)c1ccccc1C(=O)O (stereo not given) | 128 to 130 °C
31 | O=C1COc2ccc(F)cc21 | 104 to 106 °C
32 | CC(C)C(NC(=O)C=Cc1ccc(C(N)=O)cc1)C(=O)O (stereo not given) | 235 to 237 °C
33 | COc1ccc([N+](=O)[O-])cc1C(C)N (stereo not given) | 62 to 64 °C
34 | O=C(O)CCCN1CCOC1=O | 73 to 75 °C
35 | O=C(O)c1cc(/C=C/c2cccnc2)nc2ccc(Br)cc12 | 335 to 337 °C
36 | Fc1ccccc1CNc1ccc(Cl)nn1 | 169 to 171 °C
37 | O=C(O)C=Cc1ccc(S(=O)(=O)Nc2cccc(C(F)(F)F)c2)cc1 | 224 to 226 °C
38 | C=C(CC(=O)OC)C(=O)O | 67 to 69 °C
39 | CC(NC(=O)OCc1ccccc1)C(=O)N1CCNC(=O)C1 (stereo not given) | 154 to 156 °C
40 | CN(C)S(=O)(=O)c1ccc2c(c1)CCN2 | 111 to 113 °C
41 | Cc1oncc1C(=O)NCC(=O)O | 144 to 146 °C
42 | NS(=O)(=O)CCOc1ccccc1 | 102 to 104 °C
43 | O=C(O)C1CCCS1 (stereo not given) | 48 to 50 °C
44 | NNC(=S)N1CCOCC1 | 181 to 183 °C
45 | Nc1cc(N)c(F)cc1F | 111 to 113 °C
46 | COc1ccc(C2C(C(=O)O)CCC(=O)N2c2ccc(OC)cc2)cc1 (stereo not given) | 178 to 180 °C
47 | Cc1ccc(CNC(N)=O)cc1 | 184 to 186 °C
48 | O=C(O)c1ccc(O)c2ccccc12 | 184 to 186 °C
49 | COc1c(C(=O)O)sc(C)c1Br | 165 to 167 °C
50 | NC(=O)CCc1ccc(F)cc1 | 105 to 107 °C

Row | Structure (SMILES) | melting point
51 | CC(=O)COc1ccc2cc(Br)ccc2c1 | 106 to 108 °C
52 | CC(C)CCNC(=O)NC(=O)CCl | 93 to 95 °C
53 | Cc1ccc(NC2C=CS(=O)(=O)C2)cc1 (stereo not given) | 115 to 117 °C
54 | Cc1nc(SCC(=O)O)c(C#N)c(C)c1C | 135 to 138 °C
55 | O=C(O)C(O)C1CCOCC1 (stereo not given) | 79 to 81 °C
56 | Cc1ccc(F)c2c1C(=O)C(=O)N2 | 204 to 206 °C
57 | COc1ccc(Sc2nsc(N)n2)cc1 | 138 to 140 °C
58 | Brc1nnc2ccccn12 | 109 to 111 °C
59 | Cc1nn(C)c2nc(C3CC3)cc(C(=O)O)c12 | 242 to 244 °C
60 | Nc1ncn(-c2ccncc2)n1 | 213 to 215 °C
61 | CC(=O)c1ccc(NS(=O)(=O)c2ccc(Cl)cc2)cc1 | 132 to 134 °C
62 | CC(C)(C)C1CCc2sc(-c3nnc(CCl)o3)cc2C1 (stereo not given) | 89 to 91 °C
63 | COCCCC(N)=S | 48 to 50 °C
64 | Cc1ccc(NC(=O)Nc2ccccc2)cc1N | 201 to 203 °C
65 | CC1(C#N)CCN(C(=O)C(F)(F)F)CC1 | 41 to 43 °C
66 | O=C(Nc1ccc(F)cc1)NC1CCNC1 (stereo not given) | 150 to 152 °C
67 | O=C(CCl)NCc1cccc(F)c1 | 53 to 55 °C
68 | Cc1ccc(N2N=C(Br)CC2C(=O)O)cc1 (stereo not given) | 79 to 81 °C
69 | N#CC1(C(=O)O)CCc2ccccc2C1 (stereo not given) | 123 to 125 °C
70 | CC(C)(C)c1ncsc1C(=O)O | 185 to 187 °C
71 | Cc1ncc(N)s1 | 120 to 122 °C
72 | NNC(=O)CSc1n[nH]c(=O)[nH]c1=O | 225 to 227 °C
73 | CC(=O)NCc1ccc(Br)cc1 | 114 to 116 °C
74 | O=C(O)c1nnn(-c2ccc(Br)cc2)c1C(F)(F)F | 169 to 171 °C
75 | COc1cc(F)c(S(=O)(=O)Cl)cc1OC | 82 to 84 °C

Row | Structure (SMILES) | melting point
76 | COc1cccc(C(C=O)C=O)c1 | 62 to 64 °C
77 | COCc1cc(C(=O)O)no1 | 85 to 87 °C
78 | CC1CCCCC1Nc1nnc(S)s1 (stereo not given) | 133 to 135 °C
79 | O=C(O)c1ccc(Oc2ccc(F)cc2F)cc1 | 172 to 174 °C
80 | CC(C)(C)OC(=O)Nc1ccc(O)cc1 | 131 to 133 °C
81 | O=C(Cn1c(Cl)nc2ccccc21)c1ccccc1 | 168 to 170 °C
82 | O=Cc1c[nH]nc1-c1cccc(Cl)c1 | 139 to 141 °C
83 | CN(C)c1cc(C(=O)O)cc(Cl)n1 | 194 to 196 °C
84 | CC1CCC(NS(=O)(=O)CC(=O)O)CC1 (stereo not given) | 116 to 118 °C
85 | Cc1ccc(C(=O)O)c(Sc2ccccc2)n1 | 169 to 171 °C
86 | CCOC(=O)c1c(-c2ccccc2)csc1N=CN(C)C | 95 to 97 °C
87 | Cc1ccc(S(=O)(=O)Nc2cccc(C(F)(F)F)c2)cc1N | 116 to 118 °C
88 | N#Cc1ccccc1Oc1ccccc1C(=O)O | 147 to 149 °C
89 | O=C(O)c1sc(-c2ccccc2)cc1OCc1ccccc1 | 178 to 180 °C
90 | CCc1[nH]n(C)c(=N)c1-c1ccc2c(c1)OCO2 | 154 to 156 °C
91 | O=C1CCCC(=O)N1Cc1cccc(Br)c1 | 76 to 78 °C
92 | NC(=O)c1ccc(N2CCNCC2)nc1 | 195 to 197 °C
93 | Sc1nnc(N2CCOCC2)n1Cc1ccco1 | 151 to 153 °C
94 | Cc1ccccc1C(=O)NC(CC(C)C)C(=O)O (stereo not given) | 111 to 113 °C
95 | CS(=O)(=O)c1ccc(F)c(NC(=O)CCl)c1 | 126 to 128 °C
96 | CCn1ncc2c(C(=O)O)cc(-c3ccccc3)nc21 | 236 to 238 °C
97 | Cc1c(C(=O)CBr)oc2ccccc12 | 110 to 112 °C
98 | CCOc1cccc(CNC(=O)CCl)c1 | 97 to 99 °C
99 | COc1cccc2[nH]cc(CCN)c12 | 119 to 121 °C
100 | CS(=O)(=O)N1CCC(CN)CC1 | 63 to 65 °C

Row | Structure (SMILES) | melting point
101 | COc1ccc(C(=O)CCCC(=O)O)cc1 | 138 to 140 °C
102 | Cc1sc2ncnc(SCCC(=O)O)c2c1C | 187 to 189 °C
103 | CCS(=O)(=O)Nc1cc(Br)ccc1OC | 105 to 107 °C
104 | Fc1cc(CCl)c2c(c1)COC(c1ccccc1)O2 (stereo not given) | 61 to 65 °C
105 | CC(Cl)C(=O)Nc1ccnn1C(C)C (stereo not given) | 69 to 71 °C
106 | CC(C)(C)C1CCc2c(sc3nc(S)nc(S)c23)C1 (stereo not given) | 301 to 303 °C
107 | O=C(O)Cn1c(=O)cnc2ccccc21 | 195 to 199 °C
108 | O=C(O)C1CCSC1 (stereo not given) | 60 to 62 °C
109 | O=[N+]([O-])c1ccc(C2NCCS2)cc1 (stereo not given) | 124 to 126 °C
110 | NC(=O)c1ccc(CO)c(F)c1 | 103 to 105 °C
111 | Cc1ccc(C(O)CN)cc1 (stereo not given) | 70 to 72 °C
112 | CCC(=O)N1CCCC(C(=O)O)C1 (stereo not given) | 117 to 119 °C
113 | Nc1nc(CN2CCCCC2)cs1 | 153 to 155 °C
114 | Clc1cc2c(cc1Br)OCCN2 | 124 to 126 °C
115 | Cc1ccc(C(=O)O)cc1NC(=O)c1ccc(Br)cc1 | 309 to 311 °C
116 | CCOC(=O)c1cnc(C)c(C(=O)O)c1 | 199 to 201 °C
117 | O=C(O)C1CC1c1cccc(Cl)c1Cl (stereo not given) | 124 to 126 °C
118 | COC(=O)c1cc(N2CCOCC2)ccc1N | 106 to 108 °C
119 | CC(O)C(NC(=O)C1CC1)C(=O)O (stereo not given) | 138 to 140 °C
120 | Cc1c(C(=O)O)sc2nc[nH]c(=O)c12 | 248 to 252 °C
121 | CC(C)C(Oc1ccccc1Br)C(=O)O (stereo not given) | 63 to 65 °C
122 | Nc1nc2cc(Br)ccc2n1Cc1ccccc1 | 213 to 215 °C
123 | N#CCS(N)(=O)=O | 100 to 102 °C
124 | Cc1ccc(-n2nnnc2S)cc1C | 110 to 112 °C
125 | CC1CNC(=Nc2cnc3ccccc3c2)S1 (stereo not given) | 144 to 146 °C

Row | Structure (SMILES) | melting point
126 | NC(=O)C(Cl)c1cccc(Br)c1 (stereo not given) | 109 to 111 °C
127 | N#CCc1ccc2ccccc2n1 | 45 to 47 °C
128 | CC(CC(=O)O)NC(=O)OC(C)(C)C (stereo not given) | 94 to 96 °C
129 | O=C(O)CCn1nnc2ccccc2c1=O | 195 to 197 °C
130 | NCC(O)c1ccc(Cl)s1 (stereo not given) | 74 to 76 °C
131 | NS(=O)(=O)c1ccc(Cl)c(C(=O)O)c1 | 219 to 221 °C
132 | O=C(O)c1nnc(S)[nH]c1=O | 229 to 231 °C
133 | O=C(O)c1cccnc1-n1cnc2ccccc21 | 249 to 251 °C
134 | O=C(Nc1ccccc1)OCCBr | 64 to 66 °C
135 | CC(=O)c1oc2ccccc2c1N | 154 to 156 °C
136 | O=C(CCl)NC1CCN(C(=O)CCc2ccccc2)CC1 | 117 to 119 °C
137 | O=C(O)Cn1nc(-c2ccc(F)cc2)oc1=O | 110 to 112 °C
138 | Cc1ccc(CNC(=S)Nc2ccccc2)cc1 | 147 to 149 °C
139 | Nc1cc(-c2ccccc2)ns1 | 159 to 161 °C
140 | COc1ccccc1S(=O)(=O)Cl | 115 to 119 °C
141 | Cc1nc2ccccc2c(N)c1C(C)C | 123 to 125 °C
142 | O=C(CCl)Cc1ccc(F)cc1 | 127 to 129 °C
143 | O=C1CC2(CCCC2)C(=O)N1 | 105 to 107 °C
144 | O=C(Nc1cccnc1)OCC(F)(F)F | 140 to 142 °C
145 | O=C(O)CSC1=NS(=O)(=O)c2ccccc21 | 213 to 215 °C
